Measured values taken from US9708314B2, “Heterocyclic amide compound” (NISSAN CHEMICAL INDUSTRIES, LTD., priority 2013, dated 2017).

Legend:
Type in all cases: in vivo
Apera spica-venti. = experiment: Test Example 4: herbicidal effect by application to foliage (diluvial soil, plastic box); settings: Application herbicide amount 320 g/ha; foliage application
Outline: (§1)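 Scores run from 0 (herbicidal ratio ≤5%) to 5 (≥90%, almost fully withered) and were assessed three weeks after foliar spraying. Seedlings had been raised for 14 days at 25-30° C in sterilized diluvial soil before treatment, with the emulsion diluted in water to the stated g/ha dose.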

Lolium multiflorum Lam. = experiment: as above; settings: Application herbicide amount 320 g/ha; foliage application
Outline: as §1

[1] = tested on: Echinochloa crus-galli var. crus-galli; experiment: as above; settings: Application herbicide amount 320 g/ha; foliage application
Outline: as §1

Amaranthus retroflexus = experiment: as above; settings: Application herbicide amount 320 g/ha; foliage application
Outline: as §1

Avena fatua = experiment: as above; settings: Application herbicide amount 320 g/ha; foliage application
Outline: as §1

Setaria viridis = experiment: as above; settings: Application herbicide amount 320 g/ha; foliage application
Outline: as §1

Veronica persica = experiment: as above; settings: Application herbicide amount 320 g/ha; foliage application
Outline: as §1

Galium spurium = experiment: as above; settings: Application herbicide amount 320 g/ha; foliage application
Outline: as §1

Stellaria media = experiment: as above; settings: Application herbicide amount 320 g/ha; foliage application
Outline: as §1

Abutilon theophrasti = experiment: as above; settings: Application herbicide amount 320 g/ha; foliage application
Outline: as §1

Chenopodium album = experiment: as above; settings: Application herbicide amount 320 g/ha; foliage application
Outline: as §1

Digitaria ciliaris = experiment: as above; settings: Application herbicide amount 320 g/ha; foliage application
Outline: as §1

Alopecurus myosuroides = experiment: as above; settings: Application herbicide amount 320 g/ha; foliage application
Outline: as §1

[2] = tested on: transplanted Oryza sativa; experiment: Test Example 1: effect on crop, application before weed generation in submerged conditions; settings: Application herbicide amount 320 g/ha; Seventeenth Table
Outline: (§2)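 Alluvial soil in Wagner pots flooded to 4 cm water depth; weed seeds sown and 2.5 leaf stage rice seedlings transplanted. Emulsion diluted in water applied to water surface on sowing day at stated g/ha. Greenhouse 25° C. to 30° C.; effects scored 0–5 by herbicidal ratio after three weeks.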

Monochoria vaginalis = experiment: Test Example 1: herbicidal activity, application before weed generation in submerged conditions; settings: Application herbicide amount 320 g/ha; Seventeenth Table
Outline: as §2

Scirpus juncoides = experiment: as above; settings: Application herbicide amount 320 g/ha; Seventeenth Table
Outline: as §2

[3] = tested on: Echinochloa oryzacola Vasing.; experiment: as above; settings: Application herbicide amount 320 g/ha; Seventeenth Table
Outline: as §2

[4] = tested on: Beta vulgaris ssp. vulgaris; experiment: Test Example 4: effect on crop by application to foliage (diluvial soil, plastic box); settings: Application herbicide amount 320 g/ha; foliage application
Outline: as §1

Zea mays = experiment: as above; settings: Application herbicide amount 320 g/ha; foliage application
Outline: as §1

Triticum aestivum = experiment: as above; settings: Application herbicide amount 320 g/ha; foliage application
Outline: as §1

Glycine max = experiment: as above; settings: Application herbicide amount 320 g/ha; foliage application
Outline: as §1

Brassica campestris L. = experiment: as above; settings: Application herbicide amount 320 g/ha; foliage application
Outline: as §1

Row | Compound | L (Apera spica-venti.) herbicidal effect grade (Apera spica-venti.) | K (Lolium multiflorum Lam.) herbicidal effect grade (Lolium multiflorum Lam.) | H (Echinochloa crus-galli var. crus-galli) herbicidal effect grade [1] | N (Amaranthus retroflexus) herbicidal effect grade (Amaranthus retroflexus) | I (Avena fatua) herbicidal effect grade (Avena fatua) | G (Setaria viridis) herbicidal effect grade (Setaria viridis) | R (Veronica persica) herbicidal effect grade (Veronica persica) | Q (Galium spurium) herbicidal effect grade (Galium spurium) | P (Stellaria media) herbicidal effect grade (Stellaria media) | M (Abutilon theophrasti) herbicidal effect grade (Abutilon theophrasti) | O (Chenopodium album) herbicidal effect grade (Chenopodium album) | F (Digitaria ciliaris) herbicidal effect grade (Digitaria ciliaris) | J (Alopecurus myosuroides) herbicidal effect grade (Alopecurus myosuroides) | a: transplanted Oryza sativa (effect on crop grade) [2] | C: Monochoria vaginalis (herbicidal effect grade) (Monochoria vaginalis) | B: Scirpus juncoides (herbicidal effect grade) (Scirpus juncoides) | A: Echinochloa oryzicola Vasing. (herbicidal effect grade) [3] | f (Beta vulgaris ssp. vulgaris) effect on crop grade [4] | c (Zea mays) effect on crop grade (Zea mays) | e (Triticum aestivum) effect on crop grade (Triticum aestivum) | other results
1 | CCN(C)c1nnc2c(C(=O)Nc3nnco3)ccc(C(F)(F)F)n12 [1-137] | 4 (Herbicidal ratio of 70% or more and less than 90%) | 2 (Herbicidal ratio of 20% or more and less than 40%) | 5 (Herbicidal ratio of 90% or more (almost completely withered)) | 4 (Herbicidal ratio of 70% or more and less than 90%) | 3 (Herbicidal ratio of 40% or more and less than 70%) | 5 (Herbicidal ratio of 90% or more (almost completely withered)) | 5 (Herbicidal ratio of 90% or more (almost completely withered)) | 3 (Herbicidal ratio of 40% or more and less than 70%) | 5 (Herbicidal ratio of 90% or more (almost completely withered)) | 3 (Herbicidal ratio of 40% or more and less than 70%) | 5 (Herbicidal ratio of 90% or more (almost completely withered)) | 4 (Herbicidal ratio of 70% or more and less than 90%) | 2 (Herbicidal ratio of 20% or more and less than 40%) | 3 (Herbicidal ratio of 40% or more and less than 70%) | 5 (Herbicidal ratio of 90% or more (almost completely withered)) | 5 (Herbicidal ratio of 90% or more (almost completely withered)) | 5 (Herbicidal ratio of 90% or more (almost completely withered)) | 5 (Herbicidal ratio of 90% or more (almost completely withered)) | 0 (Herbicidal ratio of 5% or less (almost no effect)) | 2 (Herbicidal ratio of 20% or more and less than 40%) | d (Glycine max) effect on crop grade (Glycine max): 4 (Herbicidal ratio of 70% or more and less than 90%); g (Brassica campestris L.) effect on crop grade (Brassica campestris L.): 5 (Herbicidal ratio of 90% or more (almost completely withered))
2 | CCN(CC)c1nnc2c(C(=O)Nc3nnco3)ccc(C(F)(F)F)n12 [1-138] | 3 (Herbicidal ratio of 40% or more and less than 70%) | 1 (Herbicidal ratio of 5% or more and less than 20%) | 5 (Herbicidal ratio of 90% or more (almost completely withered)) | 4 (Herbicidal ratio of 70% or more and less than 90%) | 2 (Herbicidal ratio of 20% or more and less than 40%) | 3 (Herbicidal ratio of 40% or more and less than 70%) | 5 (Herbicidal ratio of 90% or more (almost completely withered)) | 2 (Herbicidal ratio of 20% or more and less than 40%) | 5 (Herbicidal ratio of 90% or more (almost completely withered)) | 3 (Herbicidal ratio of 40% or more and less than 70%) | 5 (Herbicidal ratio of 90% or more (almost completely withered)) | 4 (Herbicidal ratio of 70% or more and less than 90%) | 1 (Herbicidal ratio of 5% or more and less than 20%) | 2 (Herbicidal ratio of 20% or more and less than 40%) | 4 (Herbicidal ratio of 70% or more and less than 90%) | 5 (Herbicidal ratio of 90% or more (almost completely withered)) | 5 (Herbicidal ratio of 90% or more (almost completely withered)) | 5 (Herbicidal ratio of 90% or more (almost completely withered)) | 0 (Herbicidal ratio of 5% or less (almost no effect)) | 1 (Herbicidal ratio of 5% or more and less than 20%) | d (Glycine max) effect on crop grade (Glycine max): 3 (Herbicidal ratio of 40% or more and less than 70%); g (Brassica campestris L.) effect on crop grade (Brassica campestris L.): 4 (Herbicidal ratio of 70% or more and less than 90%)
3 | O=C(Nc1nnco1)c1ccc(C(F)(F)F)n2c(N3CCCC3)nnc12 [1-139] | 0 (Herbicidal ratio of 5% or less (almost no effect)) | 1 (Herbicidal ratio of 5% or more and less than 20%) | 5 (Herbicidal ratio of 90% or more (almost completely withered)) | 4 (Herbicidal ratio of 70% or more and less than 90%) | 1 (Herbicidal ratio of 5% or more and less than 20%) | 3 (Herbicidal ratio of 40% or more and less than 70%) | 5 (Herbicidal ratio of 90% or more (almost completely withered)) | 2 (Herbicidal ratio of 20% or more and less than 40%) | 5 (Herbicidal ratio of 90% or more (almost completely withered)) | 3 (Herbicidal ratio of 40% or more and less than 70%) | 5 (Herbicidal ratio of 90% or more (almost completely withered)) | 5 (Herbicidal ratio of 90% or more (almost completely withered)) | 0 (Herbicidal ratio of 5% or less (almost no effect)) | 2 (Herbicidal ratio of 20% or more and less than 40%) | 3 (Herbicidal ratio of 40% or more and less than 70%) | 4 (Herbicidal ratio of 70% or more and less than 90%) | 5 (Herbicidal ratio of 90% or more (almost completely withered)) | 5 (Herbicidal ratio of 90% or more (almost completely withered)) | 0 (Herbicidal ratio of 5% or less (almost no effect)) | 1 (Herbicidal ratio of 5% or more and less than 20%) | d (Glycine max) effect on crop grade (Glycine max): 3 (Herbicidal ratio of 40% or more and less than 70%); g (Brassica campestris L.) effect on crop grade (Brassica campestris L.): 4 (Herbicidal ratio of 70% or more and less than 90%)
4 | CC(C)c1nnc2c(C(=O)Nc3nnc(C[S+](C)[O-])o3)ccc(C(F)(F)F)n12 (stereo not shown) [1-143] | 0 (Herbicidal ratio of 5% or less (almost no effect)) | 0 (Herbicidal ratio of 5% or less (almost no effect)) | 4 (Herbicidal ratio of 70% or more and less than 90%) | 2 (Herbicidal ratio of 20% or more and less than 40%) | 0 (Herbicidal ratio of 5% or less (almost no effect)) | 0 (Herbicidal ratio of 5% or less (almost no effect)) | 3 (Herbicidal ratio of 40% or more and less than 70%) | 2 (Herbicidal ratio of 20% or more and less than 40%) | 3 (Herbicidal ratio of 40% or more and less than 70%) | 2 (Herbicidal ratio of 20% or more and less than 40%) | 4 (Herbicidal ratio of 70% or more and less than 90%) | 2 (Herbicidal ratio of 20% or more and less than 40%) | 0 (Herbicidal ratio of 5% or less (almost no effect)) | 0 (Herbicidal ratio of 5% or less (almost no effect)) | 2 (Herbicidal ratio of 20% or more and less than 40%) | 0 (Herbicidal ratio of 5% or less (almost no effect)) | 0 (Herbicidal ratio of 5% or less (almost no effect)) | 2 (Herbicidal ratio of 20% or more and less than 40%) | 0 (Herbicidal ratio of 5% or less (almost no effect)) | 0 (Herbicidal ratio of 5% or less (almost no effect)) | d (Glycine max) effect on crop grade (Glycine max): 1 (Herbicidal ratio of 5% or more and less than 20%); g (Brassica campestris L.) effect on crop grade (Brassica campestris L.): 3 (Herbicidal ratio of 40% or more and less than 70%)
